Data from ChEMBL document CHEMBL1123733, “Structure-activity relationship in PAF-acether. 3. Hydrophobic contribution to agonistic activity” (J Med Chem, 1987).

Assays:
[1] = organism: Oryctolagus cuniculus; assay: Relative aggregant activity in rabbit platelets was determined; type: functional
[2] = organism: Oryctolagus cuniculus; assay: Compound was tested in vitro for its ability to aggregate platelet-rich plasma (PRP) in rabbit; type: functional
[3] = tested on: Cavia porcellus; assay: Compound was evaluated for in vivo bronchoconstriction in anesthetized guinea pig (3 cm H2O); type: functional, Lung
[4] = tested on: Rattus norvegicus; assay: (§1) Compound is evaluated for hypotensive activity in anesthetized rat (in vivo); type: functional
[5] = tested on: Cavia porcellus; assay: Compound was evaluated for in vivo thrombocytopenia effect in anesthetized guinea pig; type: functional, organism-based
[6] = as §1; type: functional
[7] = organism: Oryctolagus cuniculus; assay: Compound was tested in vitro for its ability to aggregate washed rabbit platelets (WP); type: functional

Work on `CCCCCCCCCCCCCCCCOCCC(COP(=O)([O-])OCC[N+](C)(C)C)OC(C)=O` (stereo not drawn) yielded an RA [1] of 0.015.
In the case of `CCCCCCCCCCCCCCCCCCOC[C@H](COP(=O)([O-])OCC[N+](C)(C)C)OC(C)=O`, the EC50 [2] is reported as 19 nM, the Activity [3] is reported as 1.8e-10 M/kg and the EC30 [4] is reported as 4.9e-10 M/kg. For the same molecule, the EC50 [5] was 1.8e-10 M/kg.
For `CCCCCCCCCCCCCCCCCCSCC(COP(=O)([O-])OCC[N+](C)(C)C)OC(C)=O` (stereo not drawn), the RA [1] was 0.
`CCCCC/C=C/C/C=C/CCCCCCCCOCC(COP(=O)([O-])OCC[N+](C)(C)C)OC(C)=O` (stereo not drawn) showed an RA [1] of 2.667.
`CCCCCCCCCCCCCCCCc1ccccc1OCC(COP(=O)([O-])OCC[N+](C)(C)C)OC(C)=O` (stereo not drawn) showed an RA [1] of 0.002.
Molecule `CCCCCCCCCCCCCCCCCC(=O)OCC(COP(=O)([O-])OCC[N+](C)(C)C)OC(C)=O` (stereo not drawn) has an RA [1] of 0.004.
`CCCCCCCCCCOCC(COP(=O)([O-])OCC[N+](C)(C)C)OC(C)=O` (stereo not drawn) gave an EC50 [2] of 1200 nM, an Activity [3] of 2.5e-10 M/kg and an EC30 [6] of 7e-09 M/kg. The RA [1] was 1.048, the EC50 [5] was 6e-10 M/kg and the EC50 [7] was 8.5 nM.
For `CCCCCCCCCCCCCCc1ccc(OCC(COP(=O)([O-])OCC[N+](C)(C)C)OC(C)=O)cc1` (stereo not drawn), the RA [1] was 0.302.
`CCCCCCCCCCOCc1ccc(OCC(COP(=O)([O-])OCC[N+](C)(C)C)OC(C)=O)cc1` (stereo not drawn) showed an RA [1] of 0.01.
For `CCCCCCCCCCOc1ccc(COCC(COP(=O)([O-])OCC[N+](C)(C)C)OC(C)=O)cc1` (stereo not drawn), the RA [1] was 0.01.
With `CCCCCC/C=C/CCCCCCCCOCC(COP(=O)([O-])OCC[N+](C)(C)C)OC(C)=O` (stereo not drawn) the RA [1] was 1.6.
In the case of `CCCCCCCCCCCCCCc1cccc(OCC(COP(=O)([O-])OCC[N+](C)(C)C)OC(C)=O)c1` (stereo not drawn), the RA [1] is reported as 0.364.
With `CCCCCCOCC(COP(=O)([O-])OCC[N+](C)(C)C)OC(C)=O` (stereo not drawn) the EC50 [2] was 17000 nM, the Activity [3] was 2.6e-08 M/kg and the EC30 [4] was 7e-07 M/kg. It also gave an RA [1] of 0.003, an EC50 [5] of 1e-07 M/kg and an EC50 [7] of 310 nM.
With `COCCOCCOCCCCCCCCOCC(COP(=O)([O-])OCC[N+](C)(C)C)OC(C)=O` (stereo not drawn) the RA [1] was 0.007.
`CCCCCCCCCCCCCCCCCCCCC(COP(=O)([O-])OCC[N+](C)(C)C)OC(C)=O` (stereo not drawn) showed an RA [1] of 0.
Molecule `CCCCCCCCCCCCCCCC(=O)OCC(COP(=O)([O-])OCC[N+](C)(C)C)OC(C)=O` (stereo not drawn) has an RA [1] of 0.009.
`CCCCCCCCCCCCCCCCCCOCC(COP(=O)([O-])OCC[N+](C)(C)C)OC(C)=O` (stereo not drawn) gave an EC50 [2] of 57 nM and an RA [1] of 1.
`CCCCOCC(COP(=O)([O-])OCC[N+](C)(C)C)OC(C)=O` (stereo not drawn) gave an EC50 [2] of 100000 nM, an Activity [3] of 1e-06 M/kg and an EC30 [4] of 1.1e-06 M/kg. It also gave an RA [1] of 0.001, an EC50 [5] of 1e-06 M/kg and an EC50 [7] of 1800 nM.
For `CCCCCCCCCCCCCCCCCCC(COP(=O)([O-])OCC[N+](C)(C)C)OC(C)=O` (stereo not drawn), the RA [1] was 0.022.
In the case of `COCC(COP(=O)([O-])OCC[N+](C)(C)C)OC(C)=O` (stereo not drawn), the EC50 [2] is reported as > 100000 nM, the Activity [3] is reported as >1.6e-06 M/kg and the EC30 [4] is reported as >1.6e-06 M/kg. The EC50 [5] was > 1.6e-06 M/kg.
With `CCCCCCCCCCCCCCCCCCCCOCC(COP(=O)([O-])OCC[N+](C)(C)C)OC(C)=O` (stereo not drawn) the EC50 [2] was 190 nM, the Activity [3] was 1.3e-09 M/kg and the EC30 [4] was 2.4e-09 M/kg. For the same molecule, the RA [1] was 0.8, the EC50 [5] was 1.8e-10 M/kg and the EC50 [7] was 0.33 nM.
Molecule `CCCCCCCCCCCCOCC(COP(=O)([O-])OCC[N+](C)(C)C)OC(C)=O` (stereo not drawn) has an EC50 [2] of 230 nM, an Activity [3] of 1.2e-10 M/kg and an EC30 [4] of 3.3e-09 M/kg. For the same molecule, the RA [1] was 1.248, the EC50 [5] was 6e-10 M/kg and the EC50 [7] was 0.45 nM.
`CCCCCCCCCCCCCCCCOCC(COP(=O)([O-])OCC[N+](C)(C)C)OC(C)=O` (stereo not drawn) [PLATELET ACTIVATING FACTOR] showed an EC50 [2] of 45 nM, an Activity [3] of 5e-11 M/kg and an EC30 [4] of 1.3e-10 M/kg. The RA [1] was 1.268, the EC50 [5] was 2e-10 M/kg and the EC50 [7] was 0.2 nM.
For `CCCCCCCCCCCCCCCCCC(COP(=O)([O-])OCC[N+](C)(C)C)OC(C)=O` (stereo not drawn), the RA [1] was 0.005.
Work on `CCCCCCCCCCOCCOCCOCC(COP(=O)([O-])OCC[N+](C)(C)C)OC(C)=O` (stereo not drawn) yielded an RA [1] of 0.28.
With `CCCCCCCC/C=C/CCCCCCCCOCC(COP(=O)([O-])OCC[N+](C)(C)C)OC(C)=O` (stereo not drawn) the RA [1] was 2.
